Converted amounts (≈) assume the structure as drawn. Read-outs that look alike come from different tables or passages of the source.
Legend:
Assay type in all cases: cell-based
[1] = tested on: Trichophyton metagrophytes 530324; assay: Antifungal Activity MIC (in medicinal field); conditions: read-out: Minimal Inhibitory Concentration (MIC)
[2] = tested on: Trichophyton interdigitale; assay: Antifungal Activity MIC (in medicinal field); conditions: read-out: Minimal Inhibitory Concentration (MIC)
[3] = tested on: Cryptococcus neoformans Cr-1; assay: Antifungal Activity MIC (in medicinal field); conditions: CR1, read-out: Minimal Inhibitory Concentration (MIC)
Candida albicans GA-24 = assay: Antifungal Activity MIC (in medicinal field); conditions: GA24, read-out: Minimal Inhibitory Concentration (MIC)
[4] = tested on: Aspergillus fumigatus Saito; assay: Antifungal Activity MIC (in medicinal field); conditions: read-out: Minimal Inhibitory Concentration (MIC)
Shigella dysenteriae = assay: Minimal Inhibitory Concentration Method; conditions: read-out: Minimal Inhibitory Conc.
Proteus vulgaris OX-19 = assay: Minimal Inhibitory Concentration Method
[5] = tested on: Staphylococcus epidermidis ATCC 14990; assay: Minimal Inhibitory Concentration Method; conditions: ATCC14990, read-out: Minimal Inhibitory Conc.
[6] = tested on: Staphylococcus aureus 209P JC-1; assay: Minimal Inhibitory Concentration Method; conditions: Staphylococcus aureus 209P JC-1; read-out: Minimal Inhibitory Conc.
Escherichia coli No. 29 = assay: Minimal Inhibitory Concentration Method; conditions: read-out: Minimal Inhibitory Conc.
[7] = tested on: Serratia marcescens MB-3848; assay: Minimal Inhibitory Concentration Method
Salmonella typhi 0-901-W = assay: Minimal Inhibitory Concentration Method; conditions: Salmonella enterica, read-out: Minimal Inhibitory Conc.
[8] = tested on: Pseudomonas cepacia M-0527; assay: Minimal Inhibitory Concentration Method; conditions: Burkholderia cepacia, M0527, read-out: Minimal Inhibitory Conc.
[9] = tested on: Bacillus subtilis ATCC 6633; assay: Minimal Inhibitory Concentration Method; conditions: ATCC6633, read-out: Minimal Inhibitory Conc.
[10] = MB3848, Serratia marcescens MB-3848, read-out: Minimal Inhibitory Conc.
[11] = OX19, Proteus vulgaris OX-19, read-out: Minimal Inhibitory Conc.

SMILES | MIC [1] | MIC [2] | MIC [3] | MIC (Candida albicans GA-24) | MIC [4] | MIC (Shigella dysenteriae) | MIC (Proteus vulgaris OX-19; Proteus vulgaris, OX19, read-out: Minimal Inhibitory Conc.) | MIC [5] | MIC [6] | MIC (Escherichia coli No. 29) | MIC [7, 10] | MIC (Salmonella typhi 0-901-W) | MIC [8] | MIC [9] | MIC (Proteus vulgaris OX-19; [11]) | MIC ([7]; Serratia marcescens, MB3848, read-out: Minimal Inhibitory Conc.)
O=[N+]([O-])c1ccc(-c2nnn(CC#CI)n2)cc1 [Compound No. 37, 2-(1'-iodopropyn-3'-yl)-5-(p-nitrophenyl)tetrazole] | < 0.04 µg/mL | 0.39 µg/mL (≈ 1.1 µM) | 3.13 µg/mL (≈ 8.81 µM) | 25 µg/mL (≈ 70.4 µM) | 6.25 µg/mL (≈ 17.6 µM) | – | – | – | – | – | – | – | – | – | – | –
CCCCCCCc1nnn(CC(I)=C(I)I)n1 [Compound No. 40, 2-(2',3',3'-triiodoallyl)-5-n-heptyltetrazole] | 0.78 µg/mL (≈ 1.33 µM) | 0.78 µg/mL (≈ 1.33 µM) | 6.25 µg/mL (≈ 10.7 µM) | 6.25 µg/mL (≈ 10.7 µM) | 6.25 µg/mL (≈ 10.7 µM) | – | – | – | – | – | – | – | – | – | – | –
CCCCCCCc1nnnn1CC(I)=C(I)I [Compound No. 41, 1-(2',3',3'-triiodoallyl)-5-n-heptyltetrazole] | 0.78 µg/mL (≈ 1.33 µM) | ≤ 0.05 µg/mL | 100 µg/mL (≈ 171 µM) | > 100 µg/mL | 3.13 µg/mL (≈ 5.34 µM) | – | – | – | – | – | – | – | – | – | – | –
CCCCCc1nnn(CC(I)=C(I)I)n1 [Compound No. 42, 2-(2',3',3'-triiodoallyl)-5-n-pentyltetrazole] | 0.09 µg/mL (≈ 0.161 µM) | 0.19 µg/mL (≈ 0.341 µM) | 0.78 µg/mL (≈ 1.4 µM) | 3.13 µg/mL (≈ 5.61 µM) | 0.78 µg/mL (≈ 1.4 µM) | – | – | – | – | – | – | – | – | – | – | –
CCCCCc1nnnn1CC(I)=C(I)I [Compound No. 43, 1-(2',3',3'-triiodoallyl)-5-n-pentyltetrazole] | 0.09 µg/mL (≈ 0.161 µM) | ≤ 0.05 µg/mL | 50 µg/mL (≈ 89.6 µM) | 12.5 µg/mL (≈ 22.4 µM) | 0.39 µg/mL (≈ 0.699 µM) | – | – | – | – | – | – | – | – | – | – | –
CC(C)(C)c1nnn(CC(I)=C(I)I)n1 [Compound No. 44, 2-(2',3',3'-triiodoallyl)-5-tert.-butyltetrazole] | 0.39 µg/mL (≈ 0.717 µM) | 0.39 µg/mL (≈ 0.717 µM) | 50 µg/mL (≈ 91.9 µM) | 50 µg/mL (≈ 91.9 µM) | 6.25 µg/mL (≈ 11.5 µM) | – | – | – | – | – | – | – | – | – | – | –
CC(C)(C)c1nnnn1CC(I)=C(I)I [Compound No. 45, 1-(2',3',3'-triiodoallyl)-5-tert.-butyltetrazole] | – | – | – | – | – | 3.13 µg/mL (≈ 5.75 µM) | 3.13 µg/mL (≈ 5.75 µM) | 0.2 µg/mL (≈ 0.368 µM) | 0.78 µg/mL (≈ 1.43 µM) | 6.25 µg/mL (≈ 11.5 µM) | 12.5 µg/mL (≈ 23 µM) | 50 µg/mL (≈ 91.9 µM) | 12.5 µg/mL (≈ 23 µM) | 0.78 µg/mL (≈ 1.43 µM) | – | –
CCCc1nnn(CC(I)=C(I)I)n1 [Compound No. 46, 2-(2',3',3'-triiodoallyl)-5-n-propyltetrazole] | ≤ 0.05 µg/mL | 0.09 µg/mL (≈ 0.17 µM) | 0.78 µg/mL (≈ 1.47 µM) | 1.56 µg/mL (≈ 2.94 µM) | 0.39 µg/mL (≈ 0.736 µM) | – | – | – | – | – | – | – | – | – | – | –
CCCc1nnnn1CC(I)=C(I)I [Compound No. 47, 1-(2',3',3'-triiodoallyl)-5-n-propyltetrazole] | ≤ 0.05 µg/mL | 0.09 µg/mL (≈ 0.17 µM) | 6.25 µg/mL (≈ 11.8 µM) | 6.25 µg/mL (≈ 11.8 µM) | 0.78 µg/mL (≈ 1.47 µM) | – | – | – | – | – | – | – | – | – | – | –
CC(C)c1nnn(CC(I)=C(I)I)n1 [Compound No. 48, 2-(2',3',3'-triiodoallyl)-5-isopropyltetrazole] | 0.78 µg/mL (≈ 1.47 µM) | 0.78 µg/mL (≈ 1.47 µM) | 12.5 µg/mL (≈ 23.6 µM) | 12.5 µg/mL (≈ 23.6 µM) | 3.13 µg/mL (≈ 5.91 µM) | 3.13 µg/mL (≈ 5.91 µM) | – | 0.39 µg/mL (≈ 0.736 µM) | 1.56 µg/mL (≈ 2.94 µM) | 6.25 µg/mL (≈ 11.8 µM) | – | 12.5 µg/mL (≈ 23.6 µM) | 6.25 µg/mL (≈ 11.8 µM) | 0.39 µg/mL (≈ 0.736 µM) | 6.25 µg/mL (≈ 11.8 µM) | 12.5 µg/mL (≈ 23.6 µM)
CC(C)c1nnnn1CC(I)=C(I)I [Compound No. 49, 1-(2',3',3'-triiodoallyl)-5-isopropyltetrazole] | 6.25 µg/mL (≈ 11.8 µM) | 1.56 µg/mL (≈ 2.94 µM) | 6.25 µg/mL (≈ 11.8 µM) | 12.5 µg/mL (≈ 23.6 µM) | 12.5 µg/mL (≈ 23.6 µM) | – | – | – | – | – | – | – | – | – | – | –
IC(I)=C(I)Cn1nnnc1Cc1ccccc1 [Compound No. 59, 1-(2',3',3'-triiodoallyl)-5-benzyltetrazole] | – | – | – | – | – | 0.39 µg/mL (≈ 0.675 µM) | – | 0.2 µg/mL (≈ 0.346 µM) | 1.56 µg/mL (≈ 2.7 µM) | 0.78 µg/mL (≈ 1.35 µM) | 3.13 µg/mL (≈ 5.42 µM) | 12.5 µg/mL (≈ 21.6 µM) | 3.13 µg/mL (≈ 5.42 µM) | 1.56 µg/mL (≈ 2.7 µM) | 1.56 µg/mL (≈ 2.7 µM) | –

Source: patent US4647572A, “Iodoallyl and iodopropargyl substituted tetrazoles and anti-microbial compositions thereof” (Meiji Seika Kaisha, Ltd., priority 1982, dated 1987)
